Reference: patent publication US9187413B2, “Peripherally restricted FAAH inhibitors” (The Regents of the University of California, priority 2010, dated 2015)
Like-named read-outs stand apart in the source and are kept apart here.

Legend:
[1] = test system: carrageenan-induced inflammation; assay: Carrageenan-induced hyperalgesia, allodynia and paw edema; assay type: in vivo, mice; conditions: Swiss mice, 1 mg-kg^-1, i.p., carrageenan
Method: Behavioral tests. We measured nocifensive responses elicited by i.p. injection of acetic acid in male Swiss and C57B1/6 (wild-type or FAAH-deficient) mice^40, intraplantar injection of carrageenan in male Swiss mice^20, intraplantar injection of formalin in male Sprague-Dawley rats^41, and sciatic nerve ligation in male Swiss mice^39.
Behavioral tests Acetic acid-induced writhing was measured in Swiss mice or C57B1/6 mice (wild-type and FAAH-deficient), as described^40 with minor modifications. Briefly, the mice were acclimated to the experimental room for 2 h. Each animal was injected with acetic acid (150 μL, 0.6% in saline) and placed into a glass cylinder. Abdominal stretches (extension of body and hind limbs) were counted for 20 min, starting 5 min after acetic acid injection. […] Behavior was scored by an observer blinded to the treatment conditions. Formalin-induced nociception was assessed in Sprague-Dawley rats, as described^41. The rats were singly housed and kept in a shared holding room under a 12:12 h light:dark cycle. They were given free access to food and water, and allowed to acclimate to the facility for a week before testing. […] They were acclimated to the observation container (clear plexiglas box, 29×29×25 cm) for 15 min before receiving an injection of formalin (50 μL, 5% in saline) into the dorsal surface of the right hind paw. Immediately after formalin injection, the rats were returned to the observation container and nocifensive behavior was recorded for 60 min with a video camera. Recordings were analyzed by observers blinded to treatment conditions. Nocifensive behavior was measured continuously for 60 min^41. […] Each 5-min bin was analyzed for time spent (1) lifting and (2) licking or biting the injected paw. Nocifensive behavior was analyzed using the composite pain score weighted scores technique (CPS-WST1,2) calculated for the entire time of observation (0-60 min) and, separately, for the first (0-10 min) and second phase (10-60 min) of the behavioral response^46. The area under the curve (AUC) corresponding to CPS-WST1,2 was calculated using the trapezoidal rule. Paw edema was induced in mice by injection into the right hind paws of 50 μL of sterile saline containing 1% λ-carrageenan. Paw volumes were measured using a plethysmometer (Ugo Basile, Milan, Italy). […] Rimonabant and AM630 (1 mg kg^−1, i.p.) were injected 30 min before carrageenan. Mechanical hyperalgesia was assessed by measuring the latency(s) to withdraw the paw from a constant mechanical pressure exerted onto its dorsal surface. A 15-g calibrated glass cylindrical rod (diameter=10 mm) chamfered to a conical point (diameter=3 mm) was used to exert the mechanical force. The weight was suspended vertically between two rings attached to a stand and was free to move vertically. A cutoff time of 3 min was used. Thermal hyperalgesia was assessed as described^47, measuring the latency to withdraw the hind paw from a focused beam of radiant heat (thermal intensity: infrared 3.0) applied to the plantar surface, using a commercial apparatus (Ugo Basile, Varese, Italy). The cutoff time was set at 30 s. Mechanical allodynia was assessed by applying a graded force to the plantar hind paw surface with a Von Frey filament, using a Dynamic Plantar Anesthesiometer (Ugo Basile). The cutoff force was set at 50 g.

[2] = test system: Fos protein; assay: Formalin-induced Fos expression in lumbar spinal cord; assay type: in vivo; conditions: rats, 2 mg-kg^-1, i.p., administered without URB937
Method: Fos expression. We measured Fos protein levels by quantitative immunocytochemistry^5 on slices of lumbar (L4/L5) spinal cord from male Sprague-Dawley rats.
Fos immunohistochemistry Two hours after formalin injection into the dorsal paw, rats received a lethal dose of Nembutal (50 mg-mL^−1). They were perfused through the heart with 100 mL of 1% heparinized phosphate buffered saline (PBS) followed by 300 mL of ice-cold 4% paraformaldehyde. The lumbar-sacral region of the spinal cord was collected from each rat. Spinal cords were post fixed in 4% paraformaldehyde at 4° C. for 24 h and then cryoprotected in 30% sucrose at 4° C. for 24-48 hours. Spinal cords were cryostat-cut into 40 μm transverse sections at the level of the lumbar enlargement (L4/L5). Free floating alternating sections were kept in a series of wells filled with PBS. Every fourth section was processed for Fos immunoreactivity to ensure that the same cell would not be counted twice. Endogenous peroxidases were inactivated by incubation in hydrogen peroxide. […]
Selection of sections and quantification of the number of Fos-positive cells was performed by an observer blinded to experimental conditions. […] Using Image J, Fos expressing cells were counted in each subdivision, regardless of staining intensity, by an observer blinded to experimental treatments.

[3] = target: rat brain FAAH (Rattus norvegicus (Rat), UniProt P97612); conditions: membrane preparation of rat brain
Text: Enzyme assays. We conducted standard FAAH and monoacylglycerol lipase assays as described^15,37, using as substrates [^3H]-anandamide (a gift of the National Institute on Drug Abuse) and 2-oleoyl-sn-glycerol (Nu-Check Prep, Elysian, Minn.), respectively.

[4] = target: FAAH (Mus musculus (Mouse), UniProt O08914); assay: FAAH inhibition ex vivo after systemic administration in mice; conditions: for ability to access the brain after systemic administration: mice, 1 mg-kg^-1, i.p.; for inhibition at 1 mg/kg: mouse, ip, ex vivo 1 h after a single injection in mice (1 mg-kg^-1, i.p.)
Method: Drug preparation for in vivo experiments Drugs were dissolved in polyethylene glycol 400/Tween-80/saline (1/1/18; by volume) and administered by i.p. (5-10 mL-kg^−1) or s.c. injection (10 mL-kg^−1).

[5] = brain, read-out: FAAH Inhibition in brain (%)
[6] = liver, read-out: FAAH Inhibition in liver (%)

Sequence of rat brain FAAH (P97612 whole entry): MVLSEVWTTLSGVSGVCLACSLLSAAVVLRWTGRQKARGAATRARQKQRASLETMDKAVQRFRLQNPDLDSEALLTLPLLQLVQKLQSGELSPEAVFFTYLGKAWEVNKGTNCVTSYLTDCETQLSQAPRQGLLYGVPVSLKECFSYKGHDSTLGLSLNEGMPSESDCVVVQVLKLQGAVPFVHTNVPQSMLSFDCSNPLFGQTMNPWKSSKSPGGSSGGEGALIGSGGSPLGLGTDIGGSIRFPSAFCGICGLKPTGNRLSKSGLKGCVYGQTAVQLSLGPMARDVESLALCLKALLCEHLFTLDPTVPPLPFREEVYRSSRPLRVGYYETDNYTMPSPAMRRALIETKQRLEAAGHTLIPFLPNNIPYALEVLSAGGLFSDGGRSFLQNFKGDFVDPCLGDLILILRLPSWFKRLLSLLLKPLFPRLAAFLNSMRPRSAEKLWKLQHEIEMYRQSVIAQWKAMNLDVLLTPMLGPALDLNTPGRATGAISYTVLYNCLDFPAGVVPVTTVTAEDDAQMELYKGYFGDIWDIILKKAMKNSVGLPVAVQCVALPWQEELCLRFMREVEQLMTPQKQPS
Sequence of FAAH (O08914 whole entry): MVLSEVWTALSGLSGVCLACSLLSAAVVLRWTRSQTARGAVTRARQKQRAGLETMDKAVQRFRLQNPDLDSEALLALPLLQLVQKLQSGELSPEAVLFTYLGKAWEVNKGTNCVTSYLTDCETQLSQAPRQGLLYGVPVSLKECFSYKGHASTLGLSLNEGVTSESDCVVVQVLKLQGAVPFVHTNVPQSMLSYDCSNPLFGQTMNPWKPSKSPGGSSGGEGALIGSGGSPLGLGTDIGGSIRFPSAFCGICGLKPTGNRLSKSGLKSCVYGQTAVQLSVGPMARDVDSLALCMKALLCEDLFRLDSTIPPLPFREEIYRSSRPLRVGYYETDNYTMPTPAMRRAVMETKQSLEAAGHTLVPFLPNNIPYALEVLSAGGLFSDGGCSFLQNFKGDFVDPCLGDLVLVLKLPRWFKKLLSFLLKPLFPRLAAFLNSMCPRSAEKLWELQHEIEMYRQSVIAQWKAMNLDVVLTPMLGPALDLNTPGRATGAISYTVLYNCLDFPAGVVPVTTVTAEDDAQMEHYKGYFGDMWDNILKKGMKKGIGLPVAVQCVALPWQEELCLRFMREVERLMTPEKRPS

Row | SMILES | hyperalgesia and allodynia in contralateral (non-injected) paws [1] | formalin-induced Fos levels, antagonist without URB937 [2] | IC50 [3] [µM] | ability to access the brain after systemic administration [4] | inhibition at 1 mg/kg [4, 5] [%] | inhibition at 1 mg/kg [4, 6] [%]
1 | Cc1c(C(=O)NN2CCCCC2)nn(-c2ccc(Cl)cc2Cl)c1-c1ccc(Cl)cc1 [rimonabant, reference compound] | had no effect | did not significantly alter Fos levels |  |  |  | 
2 | NC(=O)c1cccc(-c2cc(OC(=O)NC3CCCCC3)ccc2F)c1 [Compound 1e] |  |  | 0.0497 ± 0.0058 | readily entered the brain | 89.7 ± 1.3 | 90.7 ± 1.2
3 | Cc1ccc(OC(=O)NC2CCCCC2)cc1-c1cccc(C(N)=O)c1 [Compound 1d] |  |  | 0.0205 ± 0.0006 | readily entered the brain | 91.9 ± 1.5 | 93 ± 1.1
4 | NC(=O)c1cccc(-c2cccc(OC(=O)NC3CCCCC3)c2)c1 [Compound 1a, cyclohexylcarbamic acid 3′-carbamoylbiphenyl-3-yl ester, reference compound] |  |  |  |  | 96.2 ± 0.4 | 
5 | NC(=O)c1cccc(-c2cc(OC(=O)NC3CCCCC3)ccc2N)c1 [Compound 1f] |  |  | 0.0425 ± 0.0042 | largely excluded | 23.2 ± 2.1 | 92.2 ± 0.6
6 | COc1ccc(OC(=O)NC2CCCCC2)cc1-c1cccc(C(N)=O)c1 [Compound 1c] |  |  |  | readily entered the brain |  | 
7 | COc1ccc(C(=O)c2c(C)n(CCN3CCOCC3)c3cc(I)ccc23)cc1 [AM630, reference compound] | had no effect |  |  |  |  | 
